target: T1, Recombinant human H-PGDS (Homo sapiens, UniProt O60760); assay: H-PGDS inhibitory activity (prostaglandin D2 production measured by LC-MS/MS); type: biochemical; settings: recombinant human H-PGDS 1.0 nM expressed in E. coli; prostaglandin H2 25 μM; 15 min preincubation and 1 min reaction on ice
T1 construct: made in house; host or cells: E. coli
Method: The H-PGDS inhibitory activity of each Example compound was measured according to the method described in WO 2007/041634.
Recombinant human H-PGDS (final concentration: 1.0 nM) expressed in E. coli was mixed in an assay buffer containing 20 mM Tris-HCl (pH 8.0), 2 mM magnesium chloride, 2 mM reduced glutathione, and 0.5 mg/mL γ-globulin, and 150 μL of the mixture was dispensed into an 8-strip PCR tube (BM Equipment Co., Ltd). Test compounds (Example compounds) (16.5 μL) at various concentrations dissolved in DMSO were added and the mixture was preincubated for 15 minutes on ice.
Prostaglandin H2 (final concentration: 25 μM) (Cayman Chemical) was dispensed into another 8-strip PCR tube, and the solvent was dried and solidified using a vacuum concentrator (Thermo Fisher Scientific). To the dried and solidified prostaglandin H2 was added 50 μL of the assay buffer containing H-PGDS and each test compound after the preincubation, and the mixture was reacted on ice for 1 minute. 40 μL of this mixture was added to 40 μL of a stop solution (50 mM aqueous citric acid solution containing iron chloride at a final concentration of 4 mg/mL) to stop the reaction. Then, the reaction solution was deproteinized, added to a 96 square deep well plate (SHONANMARUHACHI STEC Co., Ltd.), and the prostaglandin D2 concentration in the reaction solution was measured by LC-MS/MS. ACQUITY (registered trademark) TQD (Waters) was used as a measuring instrument.
Prostaglandin D2 production activity (%) in the group with each test compound when a value obtained by subtracting the amount of production of prostaglandin D2 in the group without enzyme, which is non-specific production of prostaglandin D2, from the amount of production of prostaglandin D2 in the group without test compound (DMSO-addition group) in each 8-strip PCR tube is 100% was calculated. From the calculated activity value, the test compound concentration that inhibits prostaglandin D2 production by 50% (IC50) was determined.

T1 sequence (O60760 whole entry): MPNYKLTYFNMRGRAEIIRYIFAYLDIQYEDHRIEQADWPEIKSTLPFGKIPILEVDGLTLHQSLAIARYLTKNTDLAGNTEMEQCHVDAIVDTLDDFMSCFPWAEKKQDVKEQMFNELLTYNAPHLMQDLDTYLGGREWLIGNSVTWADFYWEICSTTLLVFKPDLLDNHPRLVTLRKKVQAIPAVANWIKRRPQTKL

Compound | IC50 [nM]
CC(C)(O)[C@H]1CC[C@H](NC(=O)c2ccc(-c3nccc4[nH]ncc34)cc2)CC1 [Example 43, N-[trans-4-(2-hydroxypropan-2-yl)cyclohexyl]-4-(1H-pyrazolo[4,3-c]pyridin-4-yl)benzamide] | 2.4
Cc1cnc(-c2ccc(C(=O)N[C@H]3CC[C@H](OCC(C)(C)O)CC3)cc2)c2cc[nH]c12 [Example 4, N-[trans-4-(2-hydroxy-2-methylpropoxy)cyclohexyl]-4-(7-methyl-1H-pyrrolo[3,2-c]pyridin-4-yl)benzamide] | 1.5
O=C(NC1CCOCC1)c1ccc(-c2ncc(F)c3[nH]ccc23)cc1 [Example 24, 4-(7-fluoro-1H-pyrrolo[3,2-c]pyridin-4-yl)-N-(tetrahydropyran-4-yl)benzamide] | 0.86
O=C(NC12CCC(O)(CC1)CC2)c1ccc(-c2ncc(F)c3[nH]ccc23)c(F)c1 [Example 36, 3-fluoro-4-(7-fluoro-1H-pyrrolo[3,2-c]pyridin-4-yl)-N-(4-hydroxybicyclo[2.2.2]octan-1-yl)benzamide] | 0.71
O=C(NC1CCS(=O)(=O)CC1)c1ccc(-c2ncc(Cl)c3[nH]ccc23)cc1 [Example 29, 4-(7-chloro-1H-pyrrolo[3,2-c]pyridin-4-yl)-N-(1,1-dioxotetrahydrothiopyran-4-yl)benzamide] | 0.85
CC(C)(O)[C@H]1CC[C@H](NC(=O)c2ccc(-c3nccc4[nH]cnc34)cc2)CC1 [Example 44, N-[trans-4-(2-hydroxypropan-2-yl)cyclohexyl]-4-(1H-imidazo[4,5-c]pyridin-4-yl)benzamide] | 4
O=C(N[C@H]1CC[C@@H](O)CC1)c1ccc(-c2ncc(Cl)c3[nH]ccc23)cc1 [Example 33, 4-(7-chloro-1H-pyrrolo[3,2-c]pyridin-4-yl)-N-(cis-4-hydroxycyclohexyl)benzamide] | 0.77
O=C(NC12CCC(O)(CC1)C2)c1ccc(-c2ncc(Cl)c3[nH]ccc23)cc1 [Example 32, 4-(7-chloro-1H-pyrrolo[3,2-c]pyridin-4-yl)-N-(4-hydroxybicyclo[2.2.1]heptan-1-yl)benzamide] | 0.91
CC(C)(O)[C@H]1CC[C@H](NC(=O)c2ccc(-c3nccc4[nH]nnc34)cc2)CC1 [Example 45, 4-(1H-[1,2,3]triazolo[4,5-c]pyridin-4-yl)-N-[trans-4-(2-hydroxypropan-2-yl)cyclohexyl]benzamide] | 24
C[C@]1(O)CC[C@H](NC(=O)c2ccc(-c3ncc(Cl)c4[nH]ccc34)cc2)CC1 [Example 34, 4-(7-chloro-1H-pyrrolo[3,2-c]pyridin-4-yl)-N-(trans-4-hydroxy-4-methylcyclohexyl)benzamide] | 0.86
O=C(NC1CCS(=O)(=O)CC1)c1ccc(-c2ncc(F)c3[nH]ccc23)cc1 [Example 25, N-(1,1-dioxotetrahydrothiopyran-4-yl)-4-(7-fluoro-1H-pyrrolo[3,2-c]pyridin-4-yl)benzamide] | 0.7
O=C(NC1CCOCC1)c1ccc(-c2ncc(Cl)c3[nH]ccc23)cc1 [Example 28, 4-(7-chloro-1H-pyrrolo[3,2-c]pyridin-4-yl)-N-(tetrahydropyran-4-yl)benzamide] | 1.7
Cc1cnc(-c2ccc(C(=O)NC34CCC(O)(CC3)CC4)cc2)c2cc[nH]c12 [Example 1, N-(4-hydroxybicyclo[2.2.2]octan-1-yl)-4-(7-methyl-1H-pyrrolo[3,2-c]pyridin-4-yl)benzamide] | 0.99
O=C(NC12CCC(O)(CC1)CC2)c1ccc(-c2ncc(F)c3[nH]ncc23)cc1 [Example 47, 4-(7-fluoro-1H-pyrazolo[4,3-c]pyridin-4-yl)-N-(4-hydroxybicyclo[2.2.2]octan-1-yl)benzamide] | 14
Cc1cnc(-c2ccc(C(=O)N[C@H]3CC[C@](C)(O)CC3)cc2)c2cc[nH]c12 [Example 2, N-(trans-4-hydroxy-4-methylcyclohexyl)-4-(7-methyl-1H-pyrrolo[3,2-c]pyridin-4-yl)benzamide] | 1.3
C[C@]1(O)CC[C@H](NC(=O)c2ccc(-c3ncc(F)c4[nH]ccc34)cc2)CC1 [Example 21, 4-(7-fluoro-1H-pyrrolo[3,2-c]pyridin-4-yl)-N-(trans-4-hydroxy-4-methylcyclohexyl)benzamide] | 1.7

Next, values leading:

IC50 [nM] | Compound
0.88 | O=C(N[C@H]1CC[C@H](O)CC1)c1ccc(-c2nccc3[nH]ccc23)c(F)c1 [Example 12, 3-fluoro-N-(trans-4-hydroxycyclohexyl)-4-(1H-pyrrolo[3,2-c]pyridin-4-yl)benzamide]
1.2 | CC(C)(O)CO[C@H]1CC[C@H](NC(=O)c2ccc(-c3nccc4[nH]ccc34)c(F)c2)CC1 [Example 9, 3-fluoro-N-[trans-4-(2-hydroxy-2-methylpropoxy)cyclohexyl]-4-(1H-pyrrolo[3,2-c]pyridin-4-yl)benzamide]
0.95 | C[C@]1(O)CC[C@H](NC(=O)c2ccc(-c3ncc(F)c4[nH]ccc34)c(F)c2)CC1 [Example 37, 3-fluoro-4-(7-fluoro-1H-pyrrolo[3,2-c]pyridin-4-yl)-N-(trans-4-hydroxy-4-methylcyclohexyl)benzamide]
0.89 | O=C(NC12CCC(O)(CC1)C2)c1ccc(-c2ncc(F)c3[nH]ccc23)c(F)c1 [Example 41, 3-fluoro-4-(7-fluoro-1H-pyrrolo[3,2-c]pyridin-4-yl)-N-(4-hydroxybicyclo[2.2.1]heptan-1-yl)benzamide]
0.94 | O=C(N[C@H]1CC[C@H](O)CC1)c1ccc(-c2ncc(F)c3[nH]ccc23)cc1 [Example 20, 4-(7-fluoro-1H-pyrrolo[3,2-c]pyridin-4-yl)-N-(trans-4-hydroxycyclohexyl)benzamide]
0.85 | O=C(NC1CCOCC1)c1ccc(-c2ncc(F)c3[nH]ccc23)c(F)c1 [Example 38, 3-fluoro-4-(7-fluoro-1H-pyrrolo[3,2-c]pyridin-4-yl)-N-(tetrahydropyran-4-yl)benzamide]
0.79 | O=C(N[C@H]1CC[C@@H](O)CC1)c1ccc(-c2ncc(F)c3[nH]ccc23)cc1 [Example 23, 4-(7-fluoro-1H-pyrrolo[3,2-c]pyridin-4-yl)-N-(cis-4-hydroxycyclohexyl)benzamide]
3.9 | O=C(N[C@H]1CC[C@H](C2(O)CC2)CC1)c1ccc(-c2nccc3[nH]ccc23)c(F)c1 [Example 11, 3-fluoro-N-[trans-4-(1-hydroxycyclopropyl)cyclohexyl]-4-(1H-pyrrolo[3,2-c]pyridin-4-yl)benzamide]
1.2 | CC(C)(O)[C@H]1CC[C@H](NC(=O)c2ccc(-c3ncc(Cl)c4[nH]ccc34)cc2)CC1 [Example 14, 4-(7-chloro-1H-pyrrolo[3,2-c]pyridin-4-yl)-N-[trans-4-(2-hydroxypropan-2-yl)cyclohexyl]benzamide]
1.4 | CC(C)(O)[C@H]1CC[C@H](NC(=O)c2ccc(-c3ncc(F)c4[nH]ccc34)cc2)CC1 [Example 13, 4-(7-fluoro-1H-pyrrolo[3,2-c]pyridin-4-yl)-N-[trans-4-(2-hydroxypropan-2-yl)cyclohexyl]benzamide]
2.1 | CC(C)(O)CO[C@H]1CC[C@H](NC(=O)c2ccc(-c3ncc(F)c4[nH]ccc34)cc2)CC1 [Example 22, 4-(7-fluoro-1H-pyrrolo[3,2-c]pyridin-4-yl)-N-[trans-4-(2-hydroxy-2-methylpropoxy)cyclohexyl]benzamide]
0.65 | O=C(N[C@H]1CC[C@H](O)CC1)c1ccc(-c2ncc(F)c3[nH]ccc23)c(F)c1 [Example 39, 3-fluoro-4-(7-fluoro-1H-pyrrolo[3,2-c]pyridin-4-yl)-N-(trans-4-hydroxycyclohexyl)benzamide]
1.2 | CC(C)(O)[C@H]1CC[C@H](NC(=O)c2ccc(-c3ncc(F)c4[nH]ccc34)c(F)c2)CC1 [Example 35, 3-fluoro-4-(7-fluoro-1H-pyrrolo[3,2-c]pyridin-4-yl)-N-[trans-4-(2-hydroxypropan-2-yl)cyclohexyl]benzamide]
5.3 | CC(C)(O)[C@H]1CC[C@H](NC(=O)c2ccc(-c3ncc(F)c4[nH]ncc34)cc2)CC1 [Example 46, 4-(7-fluoro-1H-pyrazolo[4,3-c]pyridin-4-yl)-N-[trans-4-(2-hydroxypropan-2-yl)cyclohexyl]benzamide]
3.4 | CC(C)(O)[C@H]1CC[C@H](NC(=O)c2ccc(-c3ncc(C#N)c4[nH]ccc34)cc2)CC1 [Example 15, 4-(7-cyano-1H-pyrrolo[3,2-c]pyridin-4-yl)-N-[trans-4-(2-hydroxypropan-2-yl)cyclohexyl]benzamide]
5.9 | CC(C)(O)[C@H]1CC[C@H](NC(=O)c2ccc(-c3ncc(Cl)c4[nH]ncc34)cc2)CC1 [Example 48, 4-(7-chloro-1H-pyrazolo[4,3-c]pyridin-4-yl)-N-[trans-4-(2-hydroxypropan-2-yl)cyclohexyl]benzamide]

From US20250074906A1, “AZAINDOLE DERIVATIVE THAT INHIBITS H-PGDS” (SATO PHARMACEUTICAL CO., LTD., priority 2021, published 2025)
